Experiment [1] deals with cathepsin B and legumain. As to the kind of experiment: In vivo labeling of cathepsin B and legumain in kidney and spleen of normal mice. Conditions: intravenous, tissues collected 2 hrs after injection. As to the method: The present selective caspase inhibitors may be used for in vivo imaging. Cy5-fluorescent labeled versions of AB46 and AB50 were injected into normal mice and labeling of cathepsins and legumain in kidney and spleen was monitored (FIG. 14).
Normal mice were intravenously injected with the probes and tissues were collected 2 hrs after injection. Tissues were homogenized and total protein samples were analyzed by SDS-PAGE followed by scanning of the gel using a fluorescent scanner.

Experiment [2] concerns the target T1, caspase-3 (Mus musculus, UniProt P70677).
T1 construct: from tissue; host or cells: thymus of Balb-c mice
T1 sequence (P70677 29-175 limits assumed): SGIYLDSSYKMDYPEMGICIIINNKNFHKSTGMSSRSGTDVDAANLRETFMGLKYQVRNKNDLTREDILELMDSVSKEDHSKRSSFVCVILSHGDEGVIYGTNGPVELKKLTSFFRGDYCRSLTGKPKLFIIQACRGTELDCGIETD
T1 sequence (P70677 176-277 limits assumed): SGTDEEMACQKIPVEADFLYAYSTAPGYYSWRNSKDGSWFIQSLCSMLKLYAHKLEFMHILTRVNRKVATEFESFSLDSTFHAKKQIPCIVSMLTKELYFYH
Put plainly: In vivo labeling of caspase-3 in the thymus of dexamethazone treated mice. The conditions noted are these: dexamethazone 40 mg/kg IP, probe by tail vein after 12 or 24 hrs, 3 hrs circulation. The source says: The following example utilizes dexamethazone-induced apoptosis in the thymus. See, Cristina et al., “Dexamethasone-induced apoptosis of thymocytes: role of glucocorticoid receptor-associated Src kinase and caspase-8 activation,” prepublished online as a Blood First Edition Paper on Aug. 29, 2002; DOI 10.1182/blood-2002-06-1779. This is a particularly simple model that allows one to activate apoptosis specifically in the thymus by injection of normal mice with low doses of dexamethazone. […] Also, one can monitor changes in activation of caspases with time after induction of apoptosis.
Wild Type Balb-c mice were injected with dexamethazone (40 mg/kg) by IP injection. After 12 or 24 hrs the general caspase probe AB50 was injected by tail vein and the probe allowed to circulate for 3 hrs, at which time tissues from thymus, lung, liver, and kidney were collected. We removed the thymus, kidney and lung and imaged the whole organs using the IVIS2000 system. The tissues were then analyzed by SDS-PAGE and fluorescent scanning of the gels. For comparison we monitored the levels of cleaved, active caspase-3 using a specific antibody. […] An antibody against actin was used as a loading control.

On to `Cc1cccc(C)c1C(=O)OCC(=O)[C@H](CC(=O)O)NC(=O)C1CCCN1C(=O)[C@@H](CCC(=O)O)NC(=O)Cc1ccc(O)c([N+](=O)[O-])c1` (stereo partly drawn) [AB50, NP-E-P- D-AOMK], for which the “in vivo labeling in kidney and spleen” value in experiment [1] is on record as “only labeled legumain”. In addition, the “in vivo labeling of caspase-3 in thymus” value in experiment [2] is “Bands can be clearly seen at the caspase-3 estimated MW”.

Values taken from patent publication US20100068150A1, “Selective Caspase Inhibitors” (The Board of Trustees of the Leland Stanford Junior …, priority 2006, published 2010).
